Data set [1] is described as follows: Tmax in rat plasma at 1 mg/kg, po. Format: ADME, organism-based.
A short description of data set [2]: Cmax in rat plasma at 1 mg/kg, po. The format is ADME, organism-based. Details: dose 1 mg/kg, route po.
A short description of data set [3]: Cmax in rat brain at 1 mg/kg, po. Format: ADME, organism-based. More on the design: dose 1 mg/kg, route po.
Data set [4] can be described thus: Tmax in rat brain at 1 mg/kg, po. Format: ADME, organism-based.
The nature of data set [5]: Lipophilicity, log D of compound at pH 7.4. The format is physicochemical. The conditions noted are these: buffer.
A short description of data set [6]: in vitro. The conditions noted are these: human, Caco-2.
Description: Efflux ratio of permeability across basolateral to apical side over apical to basolateral side in human Caco-2 cells
A short description of data set [7]: Unbound fraction in rat plasma at 1 mg/kg, po by rapid equilibrium dialysis method. The format is ADME, organism-based.
Data set [8] in a line: AUC (0 to 6 hrs) in rat plasma at 1 mg/kg, po. The format is ADME, organism-based. More on the design: time < 6 hr, dose 1 mg/kg, route po.
The nature of data set [9]: Solubility of compound in pH 7.4 buffer at 1 uM. The format is physicochemical.
Data set [10] is described as follows: Clearance in human hepatocytes assessed per million cells at 1 uM. Format: ADME, cell-based, Hepatocyte. The conditions noted are these: read-out: CLH.
The species named for data set [11] is Homo sapiens. Description: Selectivity ratio of Kb for antagonist activity at human alpha2A receptor stably expressed in CHO cells to Kb for antagonist activity at human alpha2C receptor stably expressed in CHO cells. The format is cell-based.
The nature of data set [12]: Permeability across basolateral to apical side in human Caco-2 cells. Format: ADME, cell-based. The conditions noted are these: read-out: permeability. For orientation: Passage across Caco-2 layers is used to estimate intestinal permeability.
A short description of data set [13]: AUC (0 to 6 hrs) in rat brain at 1 mg/kg, po. More on the design: time < 6 hr, dose 1 mg/kg, route po. The conditions noted are these: in vivo. Format: ADME, organism-based.
Data set [14] can be described thus: Permeability across apical to basolateral side in human Caco-2 cells. The format is ADME, cell-based. The conditions noted are these: read-out: permeability.
Data set [15] is described as follows: Clearance in rat hepatocytes assessed per million cells at 1 uM. Format: ADME, cell-based, Hepatocyte. The conditions noted are these: read-out: CLH.
A short description of data set [16]: Unbound Cmax in rat brain at 1 mg/kg, po by rapid equilibrium dialysis method. The format is ADME, organism-based. The conditions noted are these: in vivo. (In general: Equilibrium dialysis compares concentrations on both sides of a semipermeable membrane.)
A short description of data set [17]: Unbound Cmax in rat plasma at 1 mg/kg, po by rapid equilibrium dialysis method. Format: ADME, organism-based. The conditions noted are these: in vivo.
Data set [18] in a line: Unbound fraction in rat brain at 1 mg/kg, po by rapid equilibrium dialysis method. The format is ADME, organism-based.
The nature of data set [19]: Unbound brain-to-plasma concentration ratio in rat at 1 mg/kg, po. Format: ADME, organism-based. The conditions noted are these: read-out: K(p,uu,brain).

≈ marks a conversion by molar mass, not a printed value.

Take `Oc1cccc([C@H]2CCCN(C[C@H]3COc4ccccc4O3)C2)c1`: the Tmax (as a rule, the time at which the peak concentration occurs) in [1] turned out to be 30 min; in data set [4], 360 min. Further, the Cmax – broadly, the maximum level reached in the sampled fluid or tissue – was determined as 2 ng/mL in data set [2] and 3 ng/g in data set [3]. The logD (usually the decadic logarithm of the distribution of all forms, ionised or not, between an organic phase and buffer at a given pH) in data set [5] (read-out: logD) was 3.4. In addition, in data set [6], the efflux ratio (in general, a quotient of directional permeabilities that is used to spot active efflux) stood at 1.5. Further, the fraction unbound in data set [7] and in [18] was less than 0.01 throughout. Moreover, the exposure AUC(0-t) (usually exposure summed from dosing to a finite time, without extrapolation to infinity) at 6 h in data set [8] is 9 ng·h/mL. For the same compound, the solubility – broadly, the concentration that dissolves in the medium under given conditions – at 1 µM in [9] was found to be 18 µM (≈ 5.86 µg/mL). Besides, the hepatocyte CLint at 1 µM in [10] turned out to be 294 µL/min/1e6 cells; in [15], 682 µL/min/1e6 cells. In [11], the Selectivity ratio is 1950. The Papp B→A in [12] came out at 24.2 ×10⁻⁶ cm/s. Further, in data set [13], the AUC turned out to be 14 ng·h/g. Also, the Papp A→B in [14] stood at 16.1 ×10⁻⁶ cm/s. The fCmax in data set [16] is given as less than 0.09 nM; in [17], less than 0.06 nM.
Consider `COCc1cccnc1N1CCN(C[C@H]2COc3ccccc3O2)CC1` [ORM-13070], for which the log distribution coefficient (logD) in data set [5] stood at 3.3. The efflux ratio in data set [6] amounted to 1. This compound also registered a solubility at 1 µM in data set [9] of 176 µM (≈ 62.6 µg/mL). The hepatocyte CLint at 1 µM in data set [10] is 38.7 µL/min/1e6 cells; in [15], 135 µL/min/1e6 cells. Besides, in [11], the Selectivity ratio worked out at 4330. The Papp B→A in data set [12] was found to be 45 ×10⁻⁶ cm/s. In addition, in data set [14], the Papp A→B is 44.9 ×10⁻⁶ cm/s.
Take `CCN1C(=O)C(=O)N([C@H]2CCCN(C[C@H]3COc4ccccc4O3)C2)C1=O`: the Tmax in data set [1] and in data set [4] was 30 min throughout. Further, in data set [19], the Kp uu is 0.4. The Cmax in data set [2] was found to be 209 ng/mL; in data set [3] it was 72 ng/g. Besides, the fraction unbound (in general, free concentration divided by total concentration) in data set [7] was determined as 0.078; in [18], 0.096. The compound also had an AUC(0-t) at 6 h in data set [8] of 261 ng·h/mL. Moreover, the AUC in data set [13] was found to be 91 ng·h/g. The fCmax in data set [16] is 18 nM; in data set [17], 44 nM.

Values taken from ChEMBL document CHEMBL5126560, “2,3-Dihydrobenzo-dioxine piperidine derivatives as potent and selective α2c antagonists” (Bioorg Med Chem Lett, 2022).
